Data from US20090099253A1, “Internally Masked Neopentyl Sulfonyl Ester Cyclization Release Prodrugs of Acamprosate, Compositions Thereof, and Methods of Use” (XenoPort, Inc., priority 2007, published 2009).
Blank lines part the entries; values can stand above or below the compound they belong to.

What was measured:
[1] = system: cocaine conditioned mice; conditions: 100 mg/kg for 3 days; cited from earlier work
[2] = system: patients being treated for alcohol withdrawal; conditions: cited from earlier work
[3] = system: patients with alcohol dependence; conditions: patients with alcohol dependence abstinent at initiation of treatment; cited from earlier work
[4] = system: individual patients; conditions: doses from about 1,000 mg/day to about 2,000 mg/day; cited from earlier work
[5] = cited from earlier work
[6] = rat, in vivo
Procedure: Acamprosate or acamprosate prodrug was administered by oral gavage to groups of four to six adult male Sprague-Dawley rats (about 250 g). Animals were conscious at the time of the experiment. Acamprosate or acamprosate prodrug was orally (po) or colonically (ic) administered in 3.4% Phosal or 5% Phosal (53 MCT in 7.5% Tween 80 in 50 mM sodium phosphate buffer, pH 6.8) at a dose of 70 mg-equivalents acamprosate per kg body weight.
The percent relative bioavailability (F %) of acamprosate was determined by comparing the area under the acamprosate concentration vs time curve (AUC) following oral or colonic administration of an acamprosate prodrug or acamprosate with the AUC of the acamprosate concentration vs time curve following intravenous administration of acamprosate on a dose normalized basis.

melting point: 63.1 to 64.8 °C
Compound: CC(=O)NCCCS(=O)(=O)OCC1(C)CCC(=O)O1 (racemic) [Compound 6, rac-(2-Methyl-5-oxo-2-2,3,4-trihydrofuryl)methyl [3-(acetylamino)propyl]sulfonate]

Compound: CC(=O)NCCCS(=O)(=O)O [acamprosate, 3-(Acetylamino)propylsulfonic acid]
effect on relapse-like behavior [1]: attenuated relapse-like behavior
effect on sleep [2]: improve sleep
maintaining abstinence from alcohol [3]: effective for maintaining abstinence from alcohol
treatment of tardive dyskinesia, dystonia, and tic [4]: effective in treating tardive dyskinesia, dystonia, and tic
steady-state plasma concentration ([5]; doses of about 1-2 gm per day): 370 to 640 ng/mL
time post-dose at which steady-state plasma concentration occurs ([5]; doses of about 1-2 gm per day): 3 to 8 h
oral bioavailability ([5]; humans, oral): about 11%

acamprosate colonic bioavailability relative to the acamprosate colonic bioavailability of an equivalent dose of acamprosate itself [6]: at least 5 times
Compound: CC(=O)NCCCS(=O)(=O)OCC(C)(C)[C@@H]1COC(=O)O1 [Compound 12, 2-((4R)-2-Oxo(1,3-dioxolan-4-yl))-2-methylpropyl[3-(acetylamino)propyl]sulfonate]
